{"source": "patent US20150209315A1", "about": "(Cumberland Pharmaceuticals, priority 2009, published 2015)", "type_in_all_cases": "in vivo, human", "key": {"[1]": {"tested_on": "post-operative adult patients", "experiment": "Example 2: patient self-assessment of pain, VAS at rest", "conditions": "800 mg"}, "[2]": {"tested_on": "post-operative adult patients", "experiment": "Example 2: time to GI motility, ambulation, liquid intake, solid diet, length of hospital stay", "conditions": "800 mg; for Time to GI motility: value + SD", "procedure": "To evaluate the secondary objective of determining whether the addition of IVIb reduces the incidence of opioid related side-effects, the following endpoints were measured: (a) GI motility as assessed by return of bowel sounds, flatulence, or bowel movement (b) Combined Safety Assessment (occurrence of any of the following during the 48 hour treatment period received a rating of one: diffuse pruritus, overt respiratory depression requiring treatment; the combined total and individual incidences were evaluated), need for post-operative urinary indwelling catheter (after initial removal of surgical catheter), incidence of post-operative vomiting or need for anti-emetic medication, Richmond Agitation Sedation Scale (<−3), (c) Resumption of ambulation, (d) Resumption of liquid intake and solid diet, and (e) Length of hospital stay."}, "[3]": {"tested_on": "patients undergoing orthopedic surgical procedures", "experiment": "Example 3: morphine use post-surgery through study hour 28", "conditions": "for Morphine Requirement, LS Means Difference (95% CI): 800 mg vs placebo; for Morphine Requirement, LS Means Difference (95% CI) / Morphine Requirement, LS Means (SE) / Morphine Requirement, Mean (SD) / Morphine Requirement, Median: Post-Op-28 hours; for decrease in the mean morphine used in the postoperative period / Morphine Requirement, LS Means (SE) / Morphine Requirement, Mean (SD) / Morphine Requirement, Median: 800 mg"}, "patients": {"tested_on": "patients", "experiment": "Safety in all clinical studies conducted to date", "conditions": "for postoperative GI bleeding or renal complications: up to 5 days of treatment, abdominal and orthopedic surgical procedures"}}}
{"smiles": "CC(C)Cc1ccc(C(C)C(=O)O)cc1", "note": "(centres unmarked) [Ibuprofen, 2-(4-isobutylphenyl) propionic acid]", "values": [{"measurement": "VAS Score measured at Rest, % Reduction vs Placebo", "setting": "[1]; EEP, 3-Hour", "result": 16.7, "unit": "%"}, {"measurement": "VAS Score measured at Rest (median)", "setting": "[1]; EEP, 6-Hour", "result": 4.0}, {"measurement": "VAS Score measured at Rest, % Reduction vs Placebo", "setting": "[1]; EEP, 6-Hour", "result": 20.0, "unit": "%"}, {"measurement": "VAS Score measured at Rest (median)", "setting": "[1]; EEP, 9-Hour", "result": 3.0}, {"measurement": "VAS Score measured at Rest (median)", "setting": "[1]; EEP, 12-Hour", "result": 2.5}, {"measurement": "VAS Score measured at Rest, % Reduction vs Placebo", "setting": "[1]; EEP, 12-Hour", "result": 16.7, "unit": "%"}, {"measurement": "VAS Score measured at Rest (median)", "setting": "[1]; EEP, 15-Hour", "result": 2.0}, {"measurement": "VAS Score measured at Rest, % Reduction vs Placebo", "setting": "[1]; EEP, 15-Hour", "result": 33.3, "unit": "%"}, {"measurement": "VAS Score measured at Rest (median)", "setting": "[1]; EEP, 18-Hour", "result": 2.0}, {"measurement": "VAS Score measured at Rest, % Reduction vs Placebo", "setting": "[1]; EEP, 18-Hour", "result": 33.3, "unit": "%"}, {"measurement": "VAS Score measured at Rest (median)", "setting": "[1]; EEP, 21-Hour", "result": 1.0}, {"measurement": "VAS Score measured at Rest, % Reduction vs Placebo", "setting": "[1]; EEP, 21-Hour", "result": 66.7, "unit": "%"}, {"measurement": "VAS Score measured at Rest (median)", "setting": "[1]; EEP, 24-Hour", "result": 2.0}, {"measurement": "VAS Score measured at Rest, % Reduction vs Placebo", "setting": "[1]; EEP, 24-Hour", "result": 33.3, "unit": "%"}, {"measurement": "VAS Score measured at Rest (median)", "setting": "[1]; ITT, 1-Hour", "result": 8.0}, {"measurement": "VAS Score measured at Rest, % Reduction vs Placebo", "setting": "[1]; ITT, 1-Hour", "result": 0.0, "unit": "%"}, {"measurement": "VAS Score measured at Rest (median)", "setting": "[1]; ITT, 3-Hour", "result": 5.7}, {"measurement": "VAS Score measured at Rest, % Reduction vs Placebo", "setting": "[1]; ITT, 3-Hour", "result": 5.0, "unit": "%"}, {"measurement": "VAS Score measured at Rest (median)", "setting": "[1]; ITT, 6-Hour", "result": 4.0}, {"measurement": "VAS Score measured at Rest, % Reduction vs Placebo", "setting": "[1]; ITT, 6-Hour", "result": 11.1, "unit": "%"}, {"measurement": "VAS Score measured at Rest (median)", "setting": "[1]; ITT, 9-Hour", "result": 3.0}, {"measurement": "VAS Score measured at Rest (median)", "setting": "[1]; ITT, 12-Hour", "result": 2.7}, {"measurement": "VAS Score measured at Rest, % Reduction vs Placebo", "setting": "[1]; ITT, 12-Hour", "result": 20.6, "unit": "%"}, {"measurement": "VAS Score measured at Rest (median)", "setting": "[1]; ITT, 15-Hour", "result": 2.0}, {"measurement": "VAS Score measured at Rest, % Reduction vs Placebo", "setting": "[1]; ITT, 15-Hour", "result": 31.0, "unit": "%"}, {"measurement": "VAS Score measured at Rest (median)", "setting": "[1]; ITT, 18-Hour", "result": 2.0}, {"measurement": "VAS Score measured at Rest, % Reduction vs Placebo", "setting": "[1]; ITT, 18-Hour", "result": 31.0, "unit": "%"}, {"measurement": "VAS Score measured at Rest (median)", "setting": "[1]; ITT, 21-Hour", "result": 2.0}, {"measurement": "VAS Score measured at Rest, % Reduction vs Placebo", "setting": "[1]; ITT, 21-Hour", "result": 33.3, "unit": "%"}, {"measurement": "VAS Score measured at Rest (median)", "setting": "[1]; ITT, 24-Hour", "result": 2.0}, {"measurement": "VAS Score measured at Rest, % Reduction vs Placebo", "setting": "[1]; ITT, 24-Hour", "result": 31.0, "unit": "%"}, {"measurement": "Length of hospital stay", "setting": "[2]; EEP", "result": "62.8 ± 21.58"}, {"measurement": "Time to ambulation", "setting": "[2]; EEP", "result": "23.5 ± 0.53", "unit": "h"}, {"measurement": "Time to liquid intake", "setting": "[2]; EEP", "result": "12.4 ± 0.89"}, {"measurement": "Time to solid diet", "setting": "[2]; EEP", "result": "39.1 ± 1.42", "unit": "h"}, {"measurement": "Time to GI motility", "setting": "[2]; EEP", "result": "9.2+0.90 hours"}, {"measurement": "Length of hospital stay", "setting": "[2]; ITT", "result": "62.4 ± 21.01"}, {"measurement": "Time to ambulation", "setting": "[2]; ITT", "result": "23.4 ± 0.50", "unit": "h"}, {"measurement": "Time to liquid intake", "setting": "[2]; ITT", "result": "12.1 ± 0.83"}, {"measurement": "Time to solid diet", "setting": "[2]; ITT", "result": "41.0 ± 2.46", "unit": "h"}, {"measurement": "Time to ambulation", "setting": "[2]; ITT, listed as IV Ibuprofen", "result": "significantly improved time to ambulation"}, {"measurement": "Time to GI motility", "setting": "[2]; ITT", "result": "9.4+0.87 hours"}, {"measurement": "Morphine Requirement, LS Means Difference (95% CI)", "setting": "[3]; AT", "result": "−16.6 (−24.7, −8.4)"}, {"measurement": "Morphine Requirement, LS Means Difference (95% CI)", "setting": "[3]; EEP", "result": "−18.1 (−27.2, −9.0)"}, {"measurement": "Morphine Requirement, LS Means Difference (95% CI)", "setting": "[3]; ITT", "result": "−16.4 (−24.6, −8.1)"}, {"measurement": "decrease in the mean morphine used in the postoperative period", "setting": "[3]; AT", "result": 30.9, "unit": "%"}, {"measurement": "Morphine Requirement, LS Means (SE)", "setting": "[3]; AT", "result": "44.3 (5.7)"}, {"measurement": "Morphine Requirement, Mean (SD)", "setting": "[3]; AT", "result": "41.1 (27.3)"}, {"measurement": "Morphine Requirement, Median", "setting": "[3]; AT", "result": 38.0}, {"measurement": "Morphine Requirement, LS Means (SE)", "setting": "[3]; EEP", "result": "43.7 (5.9)"}, {"measurement": "Morphine Requirement, Mean (SD)", "setting": "[3]; EEP", "result": "43.7 (26.9)"}, {"measurement": "Morphine Requirement, Median", "setting": "[3]; EEP", "result": 40.5}, {"measurement": "decrease in the mean morphine used in the postoperative period", "setting": "[3]; EPP", "result": 33.3, "unit": "%"}, {"measurement": "decrease in the mean morphine used in the postoperative period", "setting": "[3]; ITT", "result": 30.3, "unit": "%"}, {"measurement": "Morphine Requirement, LS Means (SE)", "setting": "[3]; ITT", "result": "45.2 (5.8)"}, {"measurement": "Morphine Requirement, Mean (SD)", "setting": "[3]; ITT", "result": "41.9 (26.9)"}, {"measurement": "Morphine Requirement, Median", "setting": "[3]; ITT", "result": 38.0}, {"measurement": "impact on key metabolic and hematologic parameters", "setting": "patients; all clinical studies conducted to date", "result": "no impact"}, {"measurement": "patients with at least one morphine side effect vs placebo", "setting": "patients; clinical trials, postoperative", "result": "significantly fewer patients"}, {"measurement": "postoperative GI bleeding or renal complications", "setting": "patients; listed as IV Ibuprofen", "result": "No postoperative GI bleeding or renal complications were seen"}, {"measurement": "postoperative GI bleeding or renal complications", "setting": "patients; listed as intravenous ibuprofen", "result": "No bleeding or renal toxicity was reported"}, {"measurement": "adverse event profile", "setting": "patients; vs placebo", "result": "comparable to placebo"}]}
